Source: ChEMBL document CHEMBL4765421, “Synthesis of natural 3'-Prenylchalconaringenin and biological evaluation of ameliorating non-alcoholic fatty liver disease and metabolic syndrome” (Eur J Med Chem, 2020)
Active and inactive are the calls of the source.

Experiments:
3T3-L1 = assay: Activation of AMPK in mouse 3T3-L1 preadipocytes assessed as increase in AMPK phosphorylation at 0.1 to 15 uM by Western blot analysis; type: cell-based; conditions: filed as activator, dose 0.1-15 µM
Mus musculus [1] = assay: Hypolipidemic activity in tyloxapol-induced Kunming mouse model of hyperlipidemia assessed as increase in serum SOD level at 100 mg/kg, po measured after 24 hrs; type: functional, organism-based
Mus musculus [2] = assay: Hypolipidemic activity in tyloxapol-induced Kunming mouse model of hyperlipidemia assessed as increase in appearance of hepatic lobules at 50 to 100 mg/kg, po measured after 24 hrs by Oil Red O staining based assay; type: functional, organism-based; conditions: dose 50-100 mg/kg

Measured: Activity

CC(C)=CCC/C(C)=C/Cc1c(O)cc(O)c(C(=O)/C=C/c2ccc(O)cc2)c1O
active: all assays above
